Results reported in patent US8624022B2, “Substituted aniline derivatives” (UCB Pharma, S.A., priority 2006, dated 2014).

How the values were obtained:
[1] = target: β-1,3-glucan synthase from Aspergillus fumigatus (Aspergillus fumigatus, UniProt Q4WLT4); assay: Glucan synthase assay (membrane preparation); format: biochemical; settings: UDP-[3H]-glucose incorporation, 30° C., 120 minutes, read-out: A. fumigatus Glucan Synth IC50
Procedure: (§1) The glucan synthase assay follows the incorporation of tritiated UDP-glucose into acid insoluble β-glucan as catalysed by the glucan synthase activity present in membrane preparations from Candida albicans and Aspergillus fumigatus. UDP-[^3H]-glucose (ca 0.01 μCi) is added to 100 μl assay buffer (50 mM Tris-Cl, pH8.0, 8% glycerol, 1 mM EDTA, 1.5 mM KF, 1 mM DTT, 20 μM GTPγS, 600 μM UDP-glucose) and the reaction initiated by the addition of 2.5 μl of enzyme preparation.
(§2) After incubation at 30° C. for 120 minutes, 10 μl of 30 mg/ml BSA is added with mixing and the reaction is terminated with 110 μl ice-cold 20% TCA. The precipitate is collected on a GF/B filter plate and washed three times with 200 μl water. Once dry, 200 μl of Microscint20 is added to each well and the plate is read on a Top-count scintillation counter.

[2] = target: β-1,3-glucan synthase from Candida albicans (Candida albicans, UniProt O13428); assay: Glucan synthase assay (membrane preparation); format: biochemical; settings: UDP-[3H]-glucose incorporation, 30° C., 120 minutes, read-out: C. albicans Glucan Synth IC50
Chain of β-1,3-glucan synthase from Candida albicans (O13428 1-1897): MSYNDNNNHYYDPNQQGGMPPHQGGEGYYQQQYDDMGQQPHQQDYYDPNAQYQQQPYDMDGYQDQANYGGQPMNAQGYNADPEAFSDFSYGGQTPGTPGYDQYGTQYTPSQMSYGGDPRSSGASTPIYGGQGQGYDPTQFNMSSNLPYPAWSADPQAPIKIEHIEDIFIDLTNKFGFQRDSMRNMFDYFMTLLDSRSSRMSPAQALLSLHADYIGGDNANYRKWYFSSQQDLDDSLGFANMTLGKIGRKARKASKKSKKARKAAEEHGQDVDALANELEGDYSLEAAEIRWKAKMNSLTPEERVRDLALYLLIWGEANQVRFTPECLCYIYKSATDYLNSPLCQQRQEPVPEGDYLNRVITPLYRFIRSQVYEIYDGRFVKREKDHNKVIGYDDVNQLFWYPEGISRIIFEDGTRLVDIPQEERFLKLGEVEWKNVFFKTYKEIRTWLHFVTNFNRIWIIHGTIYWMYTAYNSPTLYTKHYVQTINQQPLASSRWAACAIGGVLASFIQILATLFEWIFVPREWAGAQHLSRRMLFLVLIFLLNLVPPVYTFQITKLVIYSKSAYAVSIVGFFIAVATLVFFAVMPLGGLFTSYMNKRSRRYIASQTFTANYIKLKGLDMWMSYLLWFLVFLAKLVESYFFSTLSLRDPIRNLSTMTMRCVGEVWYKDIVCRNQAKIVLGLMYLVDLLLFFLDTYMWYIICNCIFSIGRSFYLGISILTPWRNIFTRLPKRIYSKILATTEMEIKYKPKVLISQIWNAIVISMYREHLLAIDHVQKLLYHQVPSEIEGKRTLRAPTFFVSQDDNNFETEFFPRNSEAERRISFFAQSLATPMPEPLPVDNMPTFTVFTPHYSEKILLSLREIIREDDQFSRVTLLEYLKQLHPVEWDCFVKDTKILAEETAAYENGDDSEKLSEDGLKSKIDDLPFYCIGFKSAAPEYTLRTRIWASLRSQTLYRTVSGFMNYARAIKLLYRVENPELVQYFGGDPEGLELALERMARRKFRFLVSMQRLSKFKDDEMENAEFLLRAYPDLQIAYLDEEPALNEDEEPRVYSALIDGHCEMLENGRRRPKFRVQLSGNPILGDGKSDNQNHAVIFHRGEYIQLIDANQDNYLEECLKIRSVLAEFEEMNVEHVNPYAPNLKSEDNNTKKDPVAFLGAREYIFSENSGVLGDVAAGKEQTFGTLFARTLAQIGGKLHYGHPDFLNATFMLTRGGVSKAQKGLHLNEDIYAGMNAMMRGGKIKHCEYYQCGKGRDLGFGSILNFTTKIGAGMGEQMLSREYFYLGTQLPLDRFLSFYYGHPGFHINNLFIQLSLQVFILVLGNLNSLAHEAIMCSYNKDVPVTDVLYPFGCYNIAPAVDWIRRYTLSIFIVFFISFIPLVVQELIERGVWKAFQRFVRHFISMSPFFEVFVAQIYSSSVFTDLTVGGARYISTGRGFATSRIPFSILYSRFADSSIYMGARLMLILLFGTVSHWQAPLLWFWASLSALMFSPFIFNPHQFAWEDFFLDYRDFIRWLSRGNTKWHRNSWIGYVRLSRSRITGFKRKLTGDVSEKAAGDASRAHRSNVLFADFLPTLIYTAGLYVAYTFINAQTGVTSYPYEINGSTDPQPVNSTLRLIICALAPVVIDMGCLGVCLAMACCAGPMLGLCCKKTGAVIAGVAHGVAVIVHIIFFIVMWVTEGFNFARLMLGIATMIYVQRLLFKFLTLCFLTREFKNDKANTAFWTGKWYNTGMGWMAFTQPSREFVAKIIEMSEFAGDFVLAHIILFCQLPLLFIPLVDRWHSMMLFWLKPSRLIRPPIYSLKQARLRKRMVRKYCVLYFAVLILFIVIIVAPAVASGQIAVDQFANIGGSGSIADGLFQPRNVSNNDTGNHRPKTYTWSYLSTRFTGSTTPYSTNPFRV
Procedure: as §1, §2

Aspergillus fumigatus = assay: Proliferation assay (growth, OD600nm); format: cell-based; settings: whole organism growth, OD600nm over 6 hours at 25° C.
Procedure: (§3) Overnight cultures of organism were diluted back to an OD600nm of 0.1 in fresh media. Test compounds were added in a final concentration of 0.5% DMSO and the OD600nm was followed over 6 hours incubation at 25° C. Compounds described herein were screened to determine their activity as inhibitors of β-1,3-glucan synthase from Candida albicans and Aspergillus fumigatus and for their ability to inhibit the growth of Candida albicans and Aspergillus fumigatus whole organisms.

Candida albicans = assay: Proliferation assay (growth, OD600nm); format: cell-based; settings: whole organism growth, OD600nm over 6 hours at 25° C.
Procedure: as §3

Chain of β-1,3-glucan synthase from Aspergillus fumigatus (Q4WLT4 1-1904): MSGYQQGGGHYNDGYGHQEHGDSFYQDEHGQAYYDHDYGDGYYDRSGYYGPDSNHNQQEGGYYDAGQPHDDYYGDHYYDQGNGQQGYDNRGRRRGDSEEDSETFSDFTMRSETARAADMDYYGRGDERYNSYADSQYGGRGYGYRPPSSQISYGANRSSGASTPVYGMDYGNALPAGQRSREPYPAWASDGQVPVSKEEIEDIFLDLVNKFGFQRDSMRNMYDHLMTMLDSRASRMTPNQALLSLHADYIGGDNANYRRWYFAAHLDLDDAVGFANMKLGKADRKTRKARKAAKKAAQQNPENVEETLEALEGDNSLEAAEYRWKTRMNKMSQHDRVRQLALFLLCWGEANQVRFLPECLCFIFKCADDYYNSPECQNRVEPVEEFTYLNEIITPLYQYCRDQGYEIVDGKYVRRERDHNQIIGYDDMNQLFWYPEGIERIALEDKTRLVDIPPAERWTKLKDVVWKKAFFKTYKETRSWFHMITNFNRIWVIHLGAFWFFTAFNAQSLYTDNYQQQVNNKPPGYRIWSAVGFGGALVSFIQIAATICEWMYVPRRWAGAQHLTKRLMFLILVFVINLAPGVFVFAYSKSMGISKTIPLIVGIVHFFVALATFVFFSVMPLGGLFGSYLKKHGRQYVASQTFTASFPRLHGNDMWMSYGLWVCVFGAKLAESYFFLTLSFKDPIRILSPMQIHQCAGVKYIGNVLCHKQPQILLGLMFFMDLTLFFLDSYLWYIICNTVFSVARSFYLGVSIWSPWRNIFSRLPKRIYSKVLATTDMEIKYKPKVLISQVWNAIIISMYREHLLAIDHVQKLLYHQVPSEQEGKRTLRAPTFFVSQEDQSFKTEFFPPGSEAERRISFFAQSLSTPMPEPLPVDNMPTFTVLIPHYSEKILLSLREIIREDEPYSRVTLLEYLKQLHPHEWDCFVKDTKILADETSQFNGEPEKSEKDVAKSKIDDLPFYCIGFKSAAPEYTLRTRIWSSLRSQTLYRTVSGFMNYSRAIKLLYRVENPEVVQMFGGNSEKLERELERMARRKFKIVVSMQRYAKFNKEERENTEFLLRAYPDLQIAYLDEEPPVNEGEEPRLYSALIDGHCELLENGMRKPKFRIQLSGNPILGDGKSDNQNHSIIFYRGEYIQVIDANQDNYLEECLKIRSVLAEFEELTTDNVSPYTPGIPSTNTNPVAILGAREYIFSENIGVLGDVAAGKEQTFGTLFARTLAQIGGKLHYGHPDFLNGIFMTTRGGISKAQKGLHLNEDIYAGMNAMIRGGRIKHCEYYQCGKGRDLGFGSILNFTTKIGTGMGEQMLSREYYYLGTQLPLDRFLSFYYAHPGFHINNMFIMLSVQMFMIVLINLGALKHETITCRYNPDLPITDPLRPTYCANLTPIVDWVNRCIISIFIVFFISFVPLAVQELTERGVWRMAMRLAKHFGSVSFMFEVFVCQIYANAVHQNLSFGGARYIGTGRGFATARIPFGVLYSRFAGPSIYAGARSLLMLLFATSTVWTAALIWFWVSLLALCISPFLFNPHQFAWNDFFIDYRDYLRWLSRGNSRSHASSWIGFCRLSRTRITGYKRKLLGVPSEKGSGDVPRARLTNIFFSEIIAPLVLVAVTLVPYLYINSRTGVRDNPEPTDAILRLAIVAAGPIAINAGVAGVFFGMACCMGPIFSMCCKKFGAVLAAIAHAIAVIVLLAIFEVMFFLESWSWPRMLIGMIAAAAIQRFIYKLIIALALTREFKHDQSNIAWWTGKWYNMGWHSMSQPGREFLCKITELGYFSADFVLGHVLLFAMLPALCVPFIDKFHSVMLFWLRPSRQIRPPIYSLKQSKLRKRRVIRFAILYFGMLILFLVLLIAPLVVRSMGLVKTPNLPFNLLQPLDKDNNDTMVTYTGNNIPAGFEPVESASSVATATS

Compound | IC50 [1] [µM] | IC50 [2] [µM] | IC50 (Aspergillus fumigatus) [µM] | IC50 (Candida albicans) [µM]
N[C@H]1CCN(C(=O)CN(CC(=O)NCc2cccc(Cl)c2)c2ccccc2Oc2ccccc2)C1 [OGT3935, 2-[[2-((S)-3-Aminopyrrolidin-1-yl)-2-oxo-ethyl]-(2-phenoxyphenyl)amino]-N-(3-chlorobenzyl)acetamide] | 38 | 12 | 93 | 55
N[C@H]1CCN(C(=O)CN(CC(=O)NCc2cccc(Cl)c2)c2ccc(Oc3ccccc3)cc2)C1 [OGT4154, 2-[[2-((S)-3-Aminopyrrolidin-1-yl)-2-oxo-ethyl]-(4-phenoxyphenyl)amino]-N-(3-chlorobenzyl)acetamide] | – | – | 12 | 22
N[C@H]1CCN(C(=O)CN(CC(=O)NCc2cc(F)cc(C(F)(F)F)c2)c2ccc(Oc3ccccc3)cc2)C1 [OGT4155, 2-[[2-((S)-3-Aminopyrrolidin-1-yl)-2-oxo-ethyl]-(4-phenoxyphenyl)amino]-N-[3-fluoro-5-(trifluoromethyl)benzyl]acetamide] | 5.2 | 5.4 | 14 | 17
N[C@H]1CCN(C(=O)CN(CC(=O)NCc2cc(C(F)(F)F)cc(C(F)(F)F)c2)c2cccc(Oc3ccccc3)c2)C1 [OGT4165, 2-[[2-((S)-3-Aminopyrrolidin-1-yl)-2-oxo-ethyl]-(3-phenoxyphenyl)amino]-N-[3,5-bis-(trifluoromethyl)benzyl]acetamide] | 6.2 | 2.7 | 43 | 19
N[C@H]1CCN(C(=O)CN(C(=O)/C=C/c2ccccc2)c2ccc(-c3cccc(OC(F)(F)F)c3)cc2)C1 [OGT4325, (E)-N-[2-((S)-3-Aminopyrrolidin-1-yl)-2-oxo-ethyl]-3-phenyl-N-(3′-trifluoromethoxy-biphenyl-4-yl)-acrylamide] | 15.6 | 8.5 | – | 8
N[C@H]1CCN(C(=O)CN(C(=O)/C=C/c2ccccc2)c2ccc(Oc3ccccc3)cc2)C1 [OGT4344, (E)-N-[2-((S)-3-Aminopyrrolidin-1-yl)-2-oxo-ethyl]-N-(4-phenoxyphenyl)-3-phenylacrylamide] | 49 | 34 | 12 | 27
CCOC(=O)c1cccc(-c2ccc(N(CC(=O)N3CC[C@H](N)C3)C(=O)/C=C/c3ccccc3)cc2)c1 [OGT4355, 4′-{[2-((S)-3-Aminopyrrolidin-1-yl)-2-oxo-ethyl]-[(E)-(3-phenylacryloyl)]-amino}-biphenyl-3-carboxylic acid, ethyl ester] | – | – | 4 | 18
